Assay results published in ChEMBL document CHEMBL5260813, “An overview on the recent developments of 1,2,4-triazine derivatives as anticancer compounds” (Eur J Med Chem, 2017).

Assays:
[1] = Ratio of IC50 for antiproliferative activity against human Bel-7402 cells assessed as inhibition of cell growth under normoxia condition to IC50 for antiproliferative activity against human Bel-7402 cells assessed as inhibition of cell growth under hypoxia condition; assay type: functional
[2] = Ratio of IC50 for antiproliferative activity against human Eca-109 cells assessed as inhibition of cell growth under normoxia condition to IC50 for antiproliferative activity against human Eca-109 cells assessed as inhibition of cell growth under hypoxia condition; assay type: functional
[3] = Ratio of IC50 for antiproliferative activity against human MCF7 cells assessed as inhibition of cell growth under normoxia condition to IC50 for antiproliferative activity against human MCF7 cells assessed as inhibition of cell growth under hypoxia condition; assay type: functional
MCF7 [4] = assay: Antiproliferative activity against human MCF7 cells assessed as inhibition of cell growth under hypoxic condition by MTT assay; assay type: functional, cell-based
HCT-116 = assay: Antiproliferative activity against human HCT-116 cells assessed as inhibition of cell growth under hypoxic condition by MTT assay; assay type: functional, cell-based
NCI-H460 = assay: Antiproliferative activity against human NCI-H460 cells assessed as inhibition of cell growth under hypoxic condition by MTT assay; assay type: functional, cell-based
MCF7 [5] = assay: Antiproliferative activity against human MCF7 cells assessed as inhibition of cell growth measured after 72 hrs by fluorescence based assay; assay type: functional; settings: MCF7, 72 h
K562 = assay: Antiproliferative activity against human K562 cells assessed as inhibition of cell growth measured after 72 hrs by fluorescence based assay; assay type: functional; settings: K562, 72 h
[6] = Ratio of IC50 for antiproliferative activity against human HL-60 cells assessed as inhibition of cell growth under normoxia condition to IC50 for antiproliferative activity against human HL-60 cells assessed as inhibition of cell growth under hypoxia condition; assay type: functional
[7] = Ratio of IC50 for antiproliferative activity against human PC-3 cells assessed as inhibition of cell growth under normoxia condition to IC50 for antiproliferative activity against human PC-3 cells assessed as inhibition of cell growth under hypoxia condition; assay type: functional

SMILES | Ratio IC50 [1] | Ratio IC50 [2] | Ratio IC50 [3] | IC50 (MCF7 [4]) [µM] | IC50 (HCT-116) [µM] | IC50 (NCI-H460) [µM] | Ratio IC50 [6] | Ratio IC50 [7] | other results
O=[N+]([O-])c1ccc2c(c1)[n+]([O-])nc(Nc1ccccc1)[n+]2[O-] | 1.44 | 1.47 | 1.61 |  |  |  |  |  | 
NCCCCCCCNc1n[n+]([O-])c2ccccc2[n+]1[O-] |  |  |  | 11.7 | 11.7 | 11.7 |  |  | 
NCCNc1n[n+]([O-])c2ccccc2[n+]1[O-] |  |  |  | 11.7 | 11.7 | 11.7 |  |  | 
O=C(NCCCCCCCCNc1n[n+]([O-])c2ccccc2[n+]1[O-])C(F)(F)F |  |  |  | 11.7 | 11.7 | 11.7 |  |  | 
NCCCCCNc1n[n+]([O-])c2ccccc2[n+]1[O-] |  |  |  | 11.7 | 11.7 | 11.7 |  |  | 
O=C(NCCCCCCNc1n[n+]([O-])c2ccccc2[n+]1[O-])C(F)(F)F |  |  |  | 11.7 | 11.7 | 11.7 |  |  | 
CNc1nc(=O)n(-c2ccccc2)nc1-c1ccccc1O |  |  |  |  |  |  |  |  | IC50 (MCF7 [5]): 3.5 µM; IC50 (K562): 3.5 µM
O=c1nc(NC2CCCCC2)c(-c2ccccc2O)nn1-c1ccccc1 |  |  |  |  |  |  |  |  | IC50 (MCF7 [5]): 3.5 µM; IC50 (K562): 3.5 µM
[O-][n+]1nc(NCCCNc2n[n+]([O-])c3ccccc3[n+]2[O-])nc2ccccc21 |  |  |  | 11.7 | 11.7 | 11.7 |  |  | 
COc1ccc2c(c1)[n+]([O-])nc(NCC1CCCCC1)[n+]2[O-] | 2 | 1.3 | 2.4 |  |  |  | 2.4 | 1 | 
CCNc1n[n+]([O-])c2cc(C)ccc2[n+]1[O-] | 1.74 | 1.4 | 2.7 |  |  |  | 1 | 2.1 | 
CCCCCCNc1n[n+]([O-])c2ccccc2[n+]1[O-] |  | 1.7 | 1.3 |  |  |  | 2.8 | 1.19 | 
NCCCCCCCCNc1n[n+]([O-])c2ccccc2[n+]1[O-] |  |  |  | 11.7 | 11.7 | 11.7 |  |  | 
O=c1nc(Nc2ccccc2)c(-c2ccccc2O)nn1-c1ccccc1 |  |  |  |  |  |  |  |  | IC50 (MCF7 [5]): 3.5 µM; IC50 (K562): 3.5 µM
NCCCNc1n[n+]([O-])c2ccccc2[n+]1[O-] |  |  |  | 11.7 | 11.7 | 11.7 |  |  | 
Cc1ccc2c(c1)[n+]([O-])nc(NCc1ccccc1)[n+]2[O-] | 2.54 | 8.77 | 3.79 |  |  |  | 1.21 | 2.4 | 

SMILES | Ratio IC50 [1] | Ratio IC50 [2] | Ratio IC50 [3] | IC50 (MCF7 [4]) [µM] | IC50 (HCT-116) [µM] | IC50 (NCI-H460) [µM] | Ratio IC50 [6] | Ratio IC50 [7] | other results
O=c1nc(NCCCCCCNc2nc(=O)n(-c3ccccc3)nc2-c2c(O)ccc3ccccc23)c(-c2c(O)ccc3ccccc23)nn1-c1ccccc1 |  |  |  |  |  |  |  |  | IC50 (MCF7 [5]): 3.5 µM; IC50 (K562): 3.5 µM
COc1ccc2c(c1)[n+]([O-])nc(NC1CCCCC1)[n+]2[O-] | 1.6 | 2 | 2.8 |  |  |  | 2.2 |  | 
CCCCCCNc1n[n+]([O-])c2cc(C)ccc2[n+]1[O-] |  | 4.7 | 1.3 |  |  |  | 2.9 | 1.3 | 
NNc1nc(=O)n(-c2ccccc2)nc1-c1ccccc1O |  |  |  |  |  |  |  |  | IC50 (MCF7 [5]): 3.5 µM; IC50 (K562): 3.5 µM
O=c1nc(NCCCCCN(CCCNc2nc(=O)n(-c3ccccc3)nc2-c2ccccc2O)c2nc(=O)n(-c3ccccc3)nc2-c2ccccc2O)c(-c2ccccc2O)nn1-c1ccccc1 |  |  |  |  |  |  |  |  | IC50 (MCF7 [5]): 3.5 µM; IC50 (K562): 3.5 µM
CCCCCCNc1n[n+]([O-])c2cc(Cl)ccc2[n+]1[O-] | 1.6 | 2.6 | 2.1 |  |  |  | 4 | 1.4 | 
NCCNc1nc(=O)n(-c2ccccc2)nc1-c1ccccc1O |  |  |  |  |  |  |  |  | IC50 (MCF7 [5]): 3.5 µM; IC50 (K562): 3.5 µM
O=[N+]([O-])c1ccc2c(c1)[n+]([O-])nc(NCc1ccccc1)[n+]2[O-] | 1.17 | 1.45 | 1.2 |  |  |  | 1.09 | 1.89 | 
NCCCCCCNc1n[n+]([O-])c2ccccc2[n+]1[O-] |  |  |  | 11.7 | 11.7 | 11.7 |  |  | 
O=c1nc(NNc2ccccc2)c(-c2ccccc2O)nn1-c1ccccc1 |  |  |  |  |  |  |  |  | IC50 (MCF7 [5]): 3.5 µM; IC50 (K562): 3.5 µM
O=C(NCCCCCCCNc1n[n+]([O-])c2ccccc2[n+]1[O-])C(F)(F)F |  |  |  | 11.7 | 11.7 | 11.7 |  |  | 
Cc1ccc2c(c1)[n+]([O-])nc(NC1CCCCC1)[n+]2[O-] | 1.1 | 2.5 | 2 |  |  |  | 7.9 | 1.2 | 
CCCCCCNc1n[n+]([O-])c2cc([N+](=O)[O-])ccc2[n+]1[O-] | 1.5 | 1.5 |  |  |  |  |  | 1.6 | 
NC(=O)NNc1nc(=O)n(-c2ccccc2)nc1-c1ccccc1O |  |  |  |  |  |  |  |  | IC50 (MCF7 [5]): 3.5 µM; IC50 (K562): 3.5 µM
O=C(NCCNc1n[n+]([O-])c2ccccc2[n+]1[O-])C(F)(F)F |  |  |  | 11.7 | 11.7 | 11.7 |  |  | 
Nc1n[n+]([O-])c2ccccc2[n+]1[O-] [TIRAPAZAMINE] | 1.8 | 6.6 | 1.7 |  |  |  | 1.1 | 3.8 | 
